Where two headings read alike, the source gives them in different places.
Experiments:
RCA120 = RCA120 (Ricinus communis, UniProt P06750); assay type: binding, caster bean; design: key to Degree of dissociation: ⊚: lectin was completely dissociated; ◯: lectin was almost completely dissociated; Δ: lectin was dissociated with residual sugar-protein interactant (aggregate); X: the lactose-RCA120 interactant kept in aggregated state, and lectin was not dissociated therefrom
ConA [1] = molecular target: T1, ConA (Canavalia ensiformis, UniProt P02866); test: Dissociation of ConA from maltose-ConA interactant by added glucose; assay type: binding; details: visual observation
Protocol: 100 μl of PBS-T (0.05%) solution containing ConA at 250 μg/ml was placed in an Eppendorf tube. […] Then, a mixture solution was vortexed for at least 10 seconds. Thereafter, the resulting mixture solution was left for approximately 2 hours, and a sugar-protein interactant was precipitated out of the mixture solution by centrifugation. Then, supernatant thereof was removed, and the sugar-protein interactant was washed with PBS-T (0.05%) solution and water several times. After the washing, 100 μl of 200 mM glucose aqueous solution was added to the sugar-protein interactant, and the resulting mixture solution was left for approximately 1 hour.
First, 25 μl of PBS-T (0.05%) solution containing RCA120 at 250 μg/ml was placed in an Eppendorf tube. To the solution was added 25 μl of the colloid solution of lactose-immobilized gold nanoparticles which was prepared in Example 4. Then, a mixture solution was vortexed for at least 10 seconds. Thereafter, the resulting mixture solution was left for approximately 2 hours, and a sugar-protein interactant (lactose-RCA interactant) was precipitated out of the mixture solution by centrifugation. Then, supernatant thereof was removed, and the sugar-protein interactant was washed with PBS-T (0.05%) solution and water several times. […] The results were evaluated by visual observation and UV-Vis measurement. […]

ConA [2] = molecular target: T1, ConA; assay type: binding
Protocol: A PBS-T (0.05%) solution containing glucose, maltose, GlcNAc, galactose, or lactose as a sugar chain at a concentration of 400 mM was prepared.
First, a PBS-T (0.05%) solution containing ConA or RCA120 at a concentration of 2 μM was prepared as a lectin solution, and the lectin solution was introduced to 96-well titer plate by adding 10 μl in each well. Then, a glucose solution, a maltose solution, or a GlcNAc solution was added to a ConA-added well by 20 μl in each well. A galactose solution or a lactose solution was added to a RCA120-added well by 20 μl in each well. The resulting solutions were stirred at a room temperature for 1 hour. […] The resulting solutions were stirred at a room temperature for 1 hour. After the stirring, absorbance of the stirred solutions at 525 nm was measured.
Values below the “after” column are IC50 obtained in a case where the sugar chain was added to an aggregate of the lectin and the colloid solution. Values below the “before” column are IC50 obtained in a case where the colloid solution was added to the admixture of the lectin and the sugar chain.

Structure (SMILES) | Degree of dissociation (RCA120) | concentration of added sugar solution at which excellent RCA120 dissociation was observed (RCA120) [mM] | concentration of added sugar solution at which excellent ConA dissociation was observed (ConA [1]) [mM] | IC50 (ConA [2]; read-out: IC50 after) [mM] | IC50 (ConA [2]; read-out: IC50 before) [mM]
O=C[C@H](O)[C@@H](O)[C@@H](O)[C@H](O)CO [galactose] | Δ and X and ◯ | ≥ 25 | ≥ 50 | – | –
CC(=O)N[C@H]1C(O)O[C@H](CO)[C@@H](O)[C@@H]1O (some centres unmarked) [GlcNAc, N-acetyl glucosamine] | – | – | – | 80.1 | 22.9
